Measurements published in PubChem BioAssay (NCI).
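Exposure lasted 48 hours, with cells grown in 96-well plates and compounds tested at five concentrations. GI50 = concentration required for 50% inhibition of growth. TGI is the concentration that stops growth completely.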

Experiments:
Assay in all cases: NCI-60 cell line screen, 48 h
ACHN renal = tested on: ACHN renal
UO-31 renal = tested on: UO-31 renal
HCC-2998 colon = tested on: HCC-2998 colon
U251 CNS = tested on: U251 CNS
MCF7 breast = tested on: MCF7 breast
SF-268 CNS = tested on: SF-268 CNS
IGROV1 ovarian = tested on: IGROV1 ovarian
SN12C renal = tested on: SN12C renal
RXF 393 renal = tested on: RXF 393 renal
HT29 colon = tested on: HT29 colon
NCI/ADR-RES ovarian = tested on: NCI/ADR-RES ovarian
SR leukemia = tested on: SR leukemia
KM12 colon = tested on: KM12 colon
HOP-62 NSCLC = tested on: HOP-62 NSCLC
NCI-H226 lung = tested on: NCI-H226 lung
M14 melanoma = tested on: M14 melanoma
MDA-MB-435 = tested on: MDA-MB-435
UACC-62 melanoma = tested on: UACC-62 melanoma
SF-295 CNS = tested on: SF-295 CNS
NCI-H23 lung = tested on: NCI-H23 lung
A498 renal = tested on: A498 renal
DU-145 prostate = tested on: DU-145 prostate
NCI-H522 lung = tested on: NCI-H522 lung
CAKI-1 renal = tested on: CAKI-1 renal
COLO 205 colon = tested on: COLO 205 colon
PC-3 prostate = tested on: PC-3 prostate
SF-539 CNS = tested on: SF-539 CNS
BT-549 breast = tested on: BT-549 breast
MALME-3M melanoma = tested on: MALME-3M melanoma
SK-MEL-2 melanoma = tested on: SK-MEL-2 melanoma
UACC-257 melanoma = tested on: UACC-257 melanoma
TK-10 renal = tested on: TK-10 renal
HCT-116 colon = tested on: HCT-116 colon
A549 NSCLC = tested on: A549 NSCLC
HOP-92 NSCLC = tested on: HOP-92 NSCLC
EKVX NSCLC = tested on: EKVX NSCLC
OVCAR-4 ovarian = tested on: OVCAR-4 ovarian
OVCAR-5 ovarian = tested on: OVCAR-5 ovarian
OVCAR-3 ovarian = tested on: OVCAR-3 ovarian
RPMI-8226 leukemia = tested on: RPMI-8226 leukemia
K-562 leukemia = tested on: K-562 leukemia
SNB-19 CNS = tested on: SNB-19 CNS
MOLT-4 leukemia = tested on: MOLT-4 leukemia
786-0 renal = tested on: 786-0 renal
SK-OV-3 ovarian = tested on: SK-OV-3 ovarian
OVCAR-8 ovarian = tested on: OVCAR-8 ovarian
CCRF-CEM leukemia = tested on: CCRF-CEM leukemia
HL-60(TB) leukemia = tested on: HL-60(TB) leukemia
MDA-MB-468 breast = tested on: MDA-MB-468 breast
SK-MEL-28 melanoma = tested on: SK-MEL-28 melanoma
HCT-15 colon = tested on: HCT-15 colon
T-47D breast = tested on: T-47D breast
NCI-H460 lung = tested on: NCI-H460 lung
SNB-75 CNS = tested on: SNB-75 CNS
SK-MEL-5 melanoma = tested on: SK-MEL-5 melanoma

COc1ccc2[nH]c(=O)c(CSc3nccc(-c4ccc(OC)c(OC)c4)n3)cc2c1
GI50 (ACHN renal): 12.1 µM
TGI (ACHN renal): 24.4 µM
GI50 (UO-31 renal): 10.4 µM
TGI (UO-31 renal): 23.7 µM
GI50 (HCC-2998 colon): 18.1 µM
TGI (HCC-2998 colon): 57.6 µM
GI50 (U251 CNS): 22.4 µM
TGI (U251 CNS): > 100 µM
GI50 (MCF7 breast): 18.7 µM
TGI (MCF7 breast): 43 µM
GI50 (SF-268 CNS): 14.7 µM
TGI (SF-268 CNS): 47.8 µM
GI50 (IGROV1 ovarian): 17.7 µM
TGI (IGROV1 ovarian): 41.6 µM
GI50 (SN12C renal): 11.2 µM
TGI (SN12C renal): 42.7 µM
GI50 (RXF 393 renal): 6.08 µM
TGI (RXF 393 renal): 40.1 µM
GI50 (HT29 colon): 17.7 µM
TGI (HT29 colon): 38.5 µM
GI50 (NCI/ADR-RES ovarian): 14.2 µM
TGI (NCI/ADR-RES ovarian): 41.2 µM
GI50 (SR leukemia): 15.9 µM
TGI (SR leukemia): > 100 µM
GI50 (KM12 colon): 21.8 µM
TGI (KM12 colon): 62.1 µM
GI50 (HOP-62 NSCLC): 18.4 µM
TGI (HOP-62 NSCLC): 51.3 µM
GI50 (NCI-H226 lung): 12.7 µM
TGI (NCI-H226 lung): 40.8 µM
GI50 (M14 melanoma): 25.5 µM
TGI (M14 melanoma): 74.4 µM
GI50 (MDA-MB-435): 23.7 µM
TGI (MDA-MB-435): 73.8 µM
GI50 (UACC-62 melanoma): 15 µM
TGI (UACC-62 melanoma): 35.3 µM
GI50 (SF-295 CNS): 17.2 µM
TGI (SF-295 CNS): 43 µM
GI50 (NCI-H23 lung): 17.6 µM
TGI (NCI-H23 lung): 45.4 µM
GI50 (A498 renal): 14.7 µM
TGI (A498 renal): 37.5 µM
GI50 (DU-145 prostate): 14.3 µM
TGI (DU-145 prostate): 32.4 µM
GI50 (NCI-H522 lung): 16.4 µM
TGI (NCI-H522 lung): 37.3 µM
GI50 (CAKI-1 renal): 11 µM
TGI (CAKI-1 renal): 32.8 µM
GI50 (COLO 205 colon): 32.1 µM
TGI (COLO 205 colon): > 100 µM
GI50 (PC-3 prostate): 11.9 µM
TGI (PC-3 prostate): 25.7 µM
GI50 (SF-539 CNS): 12.3 µM
TGI (SF-539 CNS): 25.7 µM
GI50 (BT-549 breast): 12.5 µM
TGI (BT-549 breast): 37.1 µM
GI50 (MALME-3M melanoma): 19.5 µM
TGI (MALME-3M melanoma): 40 µM
GI50 (SK-MEL-2 melanoma): 15.1 µM
TGI (SK-MEL-2 melanoma): 51.3 µM
GI50 (UACC-257 melanoma): 28.9 µM
TGI (UACC-257 melanoma): 99.9 µM
GI50 (TK-10 renal): 13.3 µM
TGI (TK-10 renal): 33.7 µM
GI50 (HCT-116 colon): 15.7 µM
TGI (HCT-116 colon): 49.2 µM
GI50 (A549 NSCLC): 20.9 µM
TGI (A549 NSCLC): 91.5 µM
GI50 (HOP-92 NSCLC): 2.01 µM
TGI (HOP-92 NSCLC): 8.63 µM
GI50 (EKVX NSCLC): 12.9 µM
TGI (EKVX NSCLC): 44 µM
GI50 (OVCAR-4 ovarian): 16.5 µM
TGI (OVCAR-4 ovarian): 78.2 µM
GI50 (OVCAR-5 ovarian): 19.1 µM
TGI (OVCAR-5 ovarian): 53.5 µM
GI50 (OVCAR-3 ovarian): 15.2 µM
TGI (OVCAR-3 ovarian): 37.3 µM
GI50 (RPMI-8226 leukemia): 6.26 µM
TGI (RPMI-8226 leukemia): 88 µM
GI50 (K-562 leukemia): 7.33 µM
TGI (K-562 leukemia): 29.6 µM
GI50 (SNB-19 CNS): 14.5 µM
TGI (SNB-19 CNS): 36 µM
GI50 (MOLT-4 leukemia): 9.07 µM
TGI (MOLT-4 leukemia): 42.9 µM
GI50 (786-0 renal): 15.4 µM
TGI (786-0 renal): 33.8 µM
GI50 (SK-OV-3 ovarian): 25.5 µM
TGI (SK-OV-3 ovarian): 60.7 µM
GI50 (OVCAR-8 ovarian): 21 µM
TGI (OVCAR-8 ovarian): > 100 µM
GI50 (CCRF-CEM leukemia): 10.5 µM
TGI (CCRF-CEM leukemia): > 100 µM
GI50 (HL-60(TB) leukemia): 35.2 µM
TGI (HL-60(TB) leukemia): > 100 µM
GI50 (MDA-MB-468 breast): 5.84 µM
TGI (MDA-MB-468 breast): 32.2 µM
GI50 (SK-MEL-28 melanoma): 20.3 µM
TGI (SK-MEL-28 melanoma): 41.5 µM
GI50 (HCT-15 colon): 15.4 µM
TGI (HCT-15 colon): 46.9 µM
GI50 (T-47D breast): 10.9 µM
TGI (T-47D breast): 67.4 µM
GI50 (NCI-H460 lung): 17.4 µM
TGI (NCI-H460 lung): 40.3 µM
GI50 (SNB-75 CNS): 3.43 µM
TGI (SNB-75 CNS): 25.9 µM
GI50 (SK-MEL-5 melanoma): 9.51 µM
TGI (SK-MEL-5 melanoma): 37.4 µM
